Where “and” joins values, the source holds several entries; their conditions need not be identical. Equal entries are not always repeated.

The assay deals with 324938-238-R-J1-PDC complex spheroids viability. The assay can be described thus: Anticancer human tumor 324938-238-R-J1-PDC patient-derived bladder carcinoma cell line growth inhibition [CLK]. The note with it: for viability, T/C: stronger effect = lower value. The text has this:
A high-throughput screen of multi-cell type tumor spheroids was designed to identify active combinations of […] and targeted small molecules. Complex spheroids include a stromal component modeled by human endothelial cells (HUVEC) and fibroblasts modeled by human mesenchymal stem cells (MSCs). The concentration ranges selected for each drug and investigational agent were based upon clinically achievable concentrations if the clinical Cmax of the agent was known.
Compounds. The drugs and investigational agents: cirtuvivint (SM08502; NSC835563), CC-671 (NSC850746), vemurafenib (NSC761431), tapotoclax (NSC804041), sotorasib (NSC818433), adagrasib (NSC831453), MRTX-1133 (NSC836407), BAY2416964 (NSC825713), copanlisib (NSC816437), inavolisib (NSC800729), abemaciclib (NSC768073), osimertinib (NSC779217), entinostat (NSC756642), eltanexor (KPT-8602, NSC794443), venetoclax (NSC766270), ceralasertib (NSC777638), bortezomib (NSC756655), olaparib (NSC753686), talazoparib (NSC767125), alisertib (NSC759677), peposertib (NSC802822), gemcitabine (NSC613327), 5-fluorouracil (NSC19893), SN-38 (NSC673596), oxaliplatin (NSC266046), paclitaxel (NSC125973), and doxorubicin (NSC123127), were obtained from the National Cancer Institute (NCI) Developmental Therapeutics Program Chemical Repository. The FDA-approved anticancer drug set is available from the Developmental Therapeutics Program at https://dtp.cancer.gov/organization/dscb/obtaining/available plates.htm. […] The stock solutions were prepared in dimethyl sulfoxide (DMSO, Sigma-Aldrich, St. Louis, MO, cat. D2650), except for the platinum complexes which were prepared in saline (Quality Biological, Gaithersburg, MD, cat. 114-055-101), at 800-fold the tested concentration and stored at -70 degrees C prior to their use. All drugs and investigational agents were tested over a range starting from a high concentration at or near the clinical Cmax and decreasing in half-log increments. If the clinical Cmax for an agent had not been determined, the highest concentration tested was 10 microM.
Cell Culture. All cells were maintained in an incubator at 37 degrees C and 5% CO2 with 95% humidity. The PDC lines were cultured according to standard operating procedures established by the NCI PDMR. Briefly, all PDCs were thawed and cultured in Matrigel-coated flasks prepared with a working solution of 1X Ham's F-12 nutrient mix, without supplementation (Invitrogen, Waltham, MA, cat. 11765054), 100 U/mL penicillin-streptomycin (Invitrogen, cat. 15140122), and 2.5% Matrigel (Corning Inc., Corning, NY, cat. 354248) for the first three passages. The 947758-054-R-J2-PDC line was cultured in 6B/Colon 1A media, which includes advanced DMEM/F-12 (Thermo Fisher Scientific, cat. 12634028), 10 mM HEPES (Thermo Fisher Scientific, cat. 15630080), 1X GlutaMAX supplement (Thermo Fisher Scientific, cat. 35050061), 0.1 mg/mL primocin (InvivoGen, cat. ant-pm-2), 10% defined fetal bovine serum, heat inactivated (HyClone Laboratories Inc., cat. SH30070.03HI), 1.25 mM N-Acetyl-L-cysteine (Sigma-Aldrich, cat. A9165), 10 mM nicotinamide (Sigma-Aldrich, cat. N0636), 1X B-27 supplement (Thermo Fisher Scientific, cat. 17504044), 1X N-2 supplement (Thermo Fisher Scientific, cat. 17502048), and 10 microM Y-27632 dihydrochloride (Tocris Bioscience, cat. 1254). The 876862-298-R-J1-PDC was cultured in 6E media, which includes all 6B/Colon 1A media components plus 50% L-WRN conditioned media (ATCC, cat. CRL-3276), 50 ng/mL recombinant human EGF recombinant protein (hEGF; Thermo Fisher Scientific, cat. PHG0311), 10 ng/mL recombinant human fibroblast growth factor 10 (hGFG-10; PeproTech, cat. 100-26), 1 ng/mL recombinant human fibroblast growth factor 2 (hFGF-2; PeproTech, cat. 100-18B), and 1 µM prostaglandin E2 (PGE2; Tocris, cat. 2296). The 227483-062-R1-J1-PDC line was cultured in Panc media, containing all 6E components except hFGF-2, with the addition of 500 nM SB-431542 (Selleckchem, cat. S1067) and 10 nM gastrin (Tocris, cat. 3006). […]
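Note: viability read after seven days of drug exposure.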
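Throughout, for viability, T/C: 100% = DMSO vehicle control wells.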

The term viability, T/C denotes the result in the treated group divided by that in the control group, in per cent. One may read the IC50 as the midpoint of a concentration-inhibition curve. Turning to `C=CC(=O)Nc1cc(Nc2nccc(-c3cn(C)c4ccccc34)n2)c(OC)cc1N(C)CCN(C)C`, the viability, T/C (compound 0.000949 µM) is 71.7% and 84%; the viability, T/C (compound 0.003 µM) is 79.8% and 82.5%; the viability, T/C (compound 0.00949 µM) is 62.2% and 65.2%; the viability, T/C (compound 0.03 µM) is 69.3% and 61.8%; the viability, T/C (compound 0.0949 µM) was 36.1% and 45.5%; the viability, T/C (compound 0.3 µM) is 22.2% and 22.7%. For the same compound, the half-inhibitory concentration (IC50) (curve of compound) is 58.3 nM and 61.8 nM.
In the case of `CC(C)CC(NC(=O)C(Cc1ccccc1)NC(=O)c1cnccn1)B(O)O` (stereo not given), the viability, T/C runs as follows: (compound 0.000949 µM) 63.7% and 55.5%; (compound 0.003 µM) 2.77% and 1.54%; (compound 0.00949 µM) 0.22% and 0.18%; (compound 0.03 µM) 0.44% and 0.2%; (compound 0.0949 µM) 0.18% and 0.12%; (compound 0.3 µM) 0.35% and 0.13%. Besides, for the setting “curve of compound”, the concentration for half-maximal inhibition (IC50) is 1.23 nM and 1.07 nM.
With `CCCS(=O)(=O)Nc1ccc(F)c(C(=O)c2c[nH]c3ncc(-c4ccc(Cl)cc4)cc23)c1F`, the viability, T/C was 80.8% and 83% (compound 0.0316 µM); 96.9% and 88.4% (compound 0.1 µM); 102% and 90.1% (compound 0.316 µM); 115% and 101% (compound 1 µM); 111% and 94.9% (compound 3.16 µM); 55% and 44.1% (compound 10 µM). Besides, for the setting “curve of compound”, the IC50 was > 10000 nM and 8670 nM.
For `CCN1CCN(Cc2ccc(Nc3ncc(F)c(-c4cc(F)c5nc(C)n(C(C)C)c5c4)n3)nc2)CC1`, the viability, T/C (compound 0.00316 µM) was 74.7% and 81.3%; the viability, T/C (compound 0.01 µM) is 69.6% and 74.1%; the viability, T/C (compound 0.0316 µM) was 60% and 54.8%; the viability, T/C (compound 0.1 µM) is 41.8% and 48.6%; the viability, T/C (compound 0.316 µM) was 37% and 36.6%; the viability, T/C (compound 1 µM) is 36.5% and 46.5%. Moreover, the half-maximal inhibitory concentration (IC50) (curve of compound) was 59.4 nM and 60.2 nM.
In the case of `CCc1c2c(nc3ccc(O)cc13)-c1cc3c(c(=O)n1C2)COC(=O)[C@]3(O)CC`, the viability, T/C by setting is: (compound 0.00316 µM) 14.5% and 16.4%; (compound 0.01 µM) 10.3% and 12.2%; (compound 0.0316 µM) 10.7% and 11.6%; (compound 0.1 µM) 10.8% and 13.9%; (compound 0.316 µM) 7.67% and 11.4%; (compound 1 µM) 2.3% and 1.78%. Moreover, for the setting “curve of compound”, the 50% inhibitory concentration (IC50) is under 3.16 nM.
For `CN1CCN(c2cc(C(=O)Nc3cc4cc(-c5cnn(C)c5)ccc4cn3)ccn2)CC1`, the viability, T/C (compound 0.0316 µM) was 80.8% [middle of 12 runs]; the viability, T/C (compound 0.1 µM) is 54.8% [middle of 12 runs]; the viability, T/C (compound 0.316 µM) was 22.3% [middle of 12 runs]; the viability, T/C (compound 1 µM) was 1.3% [middle of 12 runs]; the viability, T/C (compound 3.16 µM) was 0.22% [middle of 5 runs]; the viability, T/C (compound 10 µM) is 0.22% [middle of 10 runs]. Also, the IC50 (compound alone, run of 08/14/2023) was 116 nM [middle of 10 runs].
Regarding `CNC(=O)c1ccc(Nc2nc(OC3CCCC3)c3c(-c4ccc5nc(C)oc5c4)c[nH]c3n2)c(OC)c1`, the viability, T/C reads like this: (compound 0.0316 µM) 86% [middle of 12 runs]; (compound 0.1 µM) 28.1% [middle of 12 runs]; (compound 0.316 µM) 18.9% [middle of 12 runs]; (compound 1 µM) 15.9% [middle of 12 runs]; (compound 3.16 µM) 16.8% [middle of 12 runs]; (compound 10 µM) 17.5% [middle of 12 runs]. The concentration for half-maximal inhibition (IC50) (compound alone, run of 08/15/2023) is 62.5 nM [middle of 11 runs].
In the case of `COc1c(OCCCN2CCOCC2)ccc2c3n(c(=NC(=O)c4cnc(N)nc4)nc12)CCN3`, the viability, T/C is, setting by setting: (compound 0.00316 µM) 64.9% and 69.6%; (compound 0.01 µM) 49.7% and 52.5%; (compound 0.0316 µM) 30.7% and 33.4%; (compound 0.1 µM) 15.3% and 19%; (compound 0.316 µM) 4.22% and 7.44%; (compound 1 µM) 0.44% and 1.03%. For the same compound, the IC50 (curve of compound) was 9.79 nM and 11.5 nM.
With `Cn1ncnc1[C@H]1c2n[nH]c(=O)c3cc(F)cc(c23)N[C@@H]1c1ccc(F)cc1`, the viability, T/C (compound 0.000316 µM) is 84.5% and 92.7%; the viability, T/C (compound 0.001 µM) is 78.8% and 76.2%; the viability, T/C (compound 0.00316 µM) is 60% and 68.3%; the viability, T/C (compound 0.01 µM) was 50% and 55.5%; the viability, T/C (compound 0.0316 µM) was 37.4% and 33.3%; the viability, T/C (compound 0.1 µM) was 28.4% and 24.7%. In addition, under “curve of compound”, the half-maximal inhibitory concentration (IC50) was 9.12 nM and 11.8 nM.
For `NC(=O)C(=Cn1cnc(-c2cc(C(F)(F)F)cc(C(F)(F)F)c2)n1)c1cncnc1`, the viability, T/C is, setting by setting: (compound 0.00949 µM) 70.3% and 65.1%; (compound 0.03 µM) 56.4% and 61.5%; (compound 0.0949 µM) 37.4% and 29.3%; (compound 0.3 µM) 12.4% and 14%; (compound 0.949 µM) 5.43% and 5.85%; (compound 3 µM) 3.14% and 2.78%. In addition, for the setting “curve of compound”, the IC50 is 45.5 nM and 43.6 nM.

For the origin of these results see PubChem BioAssay AID2060621 (Molecular Pharmacology Branch, DTP, NCI, 2025).
